{"source": "paper PMC6368365", "about": "“Didehydro-Cortistatin A Inhibits HIV-1 by Specifically Binding to the Unstructured Basic Region of Tat” (mBio, 2019)", "key": {"[1]": {"target": "T1, recombinant Tat (Human immunodeficiency virus type 1 group M subtype B, UniProt P69697)", "T1 construct": "pTatC6H-1 (NIH AIDS Reagent Program) plasmid encoding C-terminal 6xHistidine Tat1-86 (HXB3, subtype B); made in house; host or cells: E. coli BL21 (plasmid pTatC6H-1, NIH AIDS Reagent Program)", "T1 sequence (P69697 whole entry)": "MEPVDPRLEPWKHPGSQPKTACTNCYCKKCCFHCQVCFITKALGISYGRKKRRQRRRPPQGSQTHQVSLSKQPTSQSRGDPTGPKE", "test": "DARTS assay (protection from proteinase K)", "format": "binding, HIV-1", "conditions": "20 min room temperature, Western blot", "procedure": "To confirm that dCA stabilizes Tat structure, we performed drug affinity responsive target stability (DARTS) assays to measure the protection against proteolysis conferred on the target protein by interaction with a small molecule. For this purpose, we incubated Tat with several concentrations of dCA and different concentrations of proteinase K (PK) for 20 min at room temperature. PK digests proteins preferably after hydrophobic, aliphatic, and aromatic residues. The protection was determined by Western blotting with an anti-His antibody (Fig. 5B). Tat alone was proportionally degraded with increasing concentrations of PK. […] Both the fluorescence assays and the DARTS assays support the notion that dCA stabilizes Tat protein.\ndCA or an analog of dCA (analog 2) was incubated with 30 ng of recombinant Tat for 20 min at room temperature. Then PK (Ambion) was added at different concentrations. The remaining Tat was quantified by Western blotting using polyclonal anti-Tat antibodies (AIDS Reagent Program) at a 1:2,000 dilution."}, "[2]": {"test_system": "NL4-3 strain in CDK8/CDK19 knockdown cells", "test": "NL4-3 infection of CDK8/CDK19 knockdown HeLa CD4 cells", "format": "cell-based, HIV-1", "conditions": "dCA 200 nM, CDK8, CDK19 or CDK8/CDK19 knockdown; viral mRNA and p24", "procedure": "The only other known ligand for dCA is CDK8. […] As such, virus-like particles (VLPs) expressing short hairpin RNAs (shRNAs) against CDK8, CDK19, CDK8/CDK19, or the shRNA control were transduced into HeLa CD4 cells. Stabilization of the knockdown was performed by puromycin selection of the populations over a 2-week period. Both RT-qPCR and Western blotting confirmed successful knockdown of CDK8/CDK19 proteins (Fig. 4A and B). These cells were then infected with NL4-3 and treated or not with dCA, and production of viral RNA and p24 in the supernatant were assessed 72 hours later. […]\nHeLa CD4 cells were transduced with VLPs expressing shRNAs against CDK8, CDK19, or both and puromycin selected to stabilize knockdown (KD). […], mRNA, DNA, and p24 capsid in supernatant were collected and measured. (A and B) CDK8 mRNA and CDK19 mRNA expression was assessed by qRT-PCR and normalized to GAPDH mRNA. […] (C) Protein expression of CDK8 and CDK19 was analyzed 72 hours postinfection by Western blotting. […] (D) Viral mRNA production measured by qRT-PCR using primers against the Nef region was measured as a function of total integrated proviral DNA. […] Statistical significance was determined using one-way ANOVA with post hoc Tukey’s test. ns, not significant; ns^a, DMSO KD CDK19 versus dCA KD CDK19. *, P < 0.01; ***, P < 0.0001; **, P < 0.001. […]"}}, "data": [{"smiles": "CN(C)C1CC23CCC4(O2)C(=CCC2(C)C(c5ccc6ccncc6c5)=CCC24)C=C3C(O)C1O", "note": "(centres unmarked) [dCA, didehydro-cortistatin A]", "values": [{"measurement": "protection of Tat from proteinase K degradation", "setting": "[1]", "result": "Tat degradation by PK was significantly reduced"}, {"measurement": "dependence of anti-HIV activity on CDK8", "setting": "[2]", "result": "does not mediate its anti-HIV activity through CDK8 inhibition"}]}]}
